The text below walks through data of US12174174B2, “Composition comprising material for regulating OCT4 modification to repress stemness” (NATIONAL CANCER CENTER, priority 2018, dated 2024).

This data set deals with CSNK2A1. Kind of data set: Doxycycline-dependent shRNA inhibition of CSNK2A1 expression in embryonic stem cell line E14, western blotting. The format is cell-based, mouse. The note with it: E14 cells, lentivirus, FIG. 24. From the text:
To confirm the relationship between CSNK2A1 and OCT4 phosphorylation using a kinase inducing the phosphorylation of serine 351 of OCT4, a cell line for regulating the inhibition of CSNK2A1 expression was produced. To this end, a lentivirus doxycycline-dependently expressing shRNA of SEQ ID NO: 5 or 6 was produced and transfected into an embryonic stem cell line E14, thereby producing a cell line capable of regulating CSNK2A1 expression using doxycycline.
In general terms: Immunoblotting shows a protein as a band on a membrane.

For “shRNA of SEQ ID NO: 6: short hairpin RNA inhibiting CSNK2A1 expression, base sequence of SEQ ID NO: 6 (CCGGACAGACUAUGACAUUCGAUUUCUCGAGAAAUCGAAUGUCAUAGUCUGUUUUUUG)”, the “OCT4 phosphorylation after inhibition of CSNK2A1 expression” value is “a kinase inducing OCT4 phosphorylation is CSNK2A1”.

As for “shRNA of SEQ ID NO: 5: short hairpin RNA inhibiting CSNK2A1 expression, base sequence of SEQ ID NO: 5 (CCGGCCGAGUUGCUUCUCGAUAUUUCUCGAGAAAUAUCGAGAAGCAACUCGGUUUUG)”, the “OCT4 phosphorylation after inhibition of CSNK2A1 expression” value is “a kinase inducing OCT4 phosphorylation is CSNK2A1”.
